In patent US12077503B2, “Substituted cyclic amides and their use as herbicides” (FMC CORPORATION, priority 2015, dated 2024):

Legend:
Assay type in all cases: in vivo
[1] = tested on: giant foxtail (Setaria faberii); experiment: Test A preemergence; conditions: for Plant response rating, Foxtail, Giant: 125 g ai/ha, 0 to 100 scale (0 no effect, 100 complete control)
Description: (§1) Seeds of plant species selected from barnyardgrass (Echinochloa crus-galli), Kochia (Kochia scoparia), ragweed (common ragweed, Ambrosia elatior), ryegrass, Italian (Italian ryegrass, Lolium multiflorum), crabgrass, large (Digitaria sanguinalis), giant foxtail (Setaria faberii), green foxtail (Setaria viridis), morningglory (Ipomoea spp.), pigweed (Amaranthus retroflexus), velvetleaf (Abutilon theophrasti), wheat (Triticum aestivum), and corn (Zea mays) were planted into a blend of loam soil and sand and treated preemergence with a directed soil spray using test chemicals formulated in anon-phytotoxic solvent mixture which included a surfactant.
(§2) At the same time, plants selected from these crop and weed species and also blackgrass (Alopecurus myosuroides), and Galium (catchweed bedstraw, Galium aparine) were planted in pots containing the same blend of loam soil and sand and treated with postemergence applications of test chemicals formulated in the same manner. Plants ranged in height from 2 to 10 cm and were in the one- to two-leaf stage for the postemergence treatment. Treated plants and untreated controls were maintained in a greenhouse for approximately 10 d, after which time all treated plants were compared to untreated controls and visually evaluated for injury. Plant response ratings, summarized in Table A, are based on a 0 to 100 scale where 0 is no effect and 100 is complete control. A dash (-) response means no test result.

[2] = tested on: pigweed (Amaranthus retroflexus); experiment: Test A preemergence
Description: as §1, §2

Kochia (Kochia scoparia) [3] = experiment: Test A preemergence
Description: as §1, §2

[4] = tested on: ryegrass, Italian (Italian ryegrass, Lolium multiflorum); experiment: Test A preemergence; conditions: for Plant response rating, Ryegrass, Italian: 125 g ai/ha, 0 to 100 scale (0 no effect, 100 complete control)
Description: as §1, §2

[5] = tested on: ragweed (common ragweed, Ambrosia elatior); experiment: Test A preemergence; conditions: for Plant response rating, Ragweed: 125 g ai/ha, 0 to 100 scale (0 no effect, 100 complete control)
Description: as §1, §2

[6] = tested on: barnyardgrass (Echinochloa crus-galli); experiment: Test A preemergence
Description: as §1, §2

[7] = tested on: giant foxtail (Setaria faberii); experiment: Test A postemergence
Description: as §1, §2

[8] = tested on: blackgrass (Alopecurus myosuroides); experiment: Test A postemergence
Description: as §1, §2

[9] = tested on: Galium (catchweed bedstraw, Galium aparine); experiment: Test A postemergence
Description: as §1, §2

[10] = tested on: wheat (Triticum aestivum); experiment: Test A postemergence
Description: as §1, §2

[11] = tested on: pigweed (Amaranthus retroflexus); experiment: Test A postemergence
Description: as §1, §2

Kochia (Kochia scoparia) [12] = experiment: Test A postemergence
Description: as §1, §2

corn (Zea mays) = experiment: Test A postemergence
Description: as §1, §2

[13] = tested on: ryegrass, Italian (Italian ryegrass, Lolium multiflorum); experiment: Test A postemergence
Description: as §1, §2

[14] = tested on: ragweed (common ragweed, Ambrosia elatior); experiment: Test A postemergence
Description: as §1, §2

[15] = tested on: barnyardgrass (Echinochloa crus-galli); experiment: Test A postemergence
Description: as §1, §2

rice (Oryra sativa) = experiment: Test B flooded paddy test; conditions: Flood, 250 g ai/ha, 0 to 100 scale where 0 is no effect and 100 is complete control
Procedure: (§3) Plant species in the flooded paddy test selected from rice (Oryra sativa), sedge, umbrella (small-flower umbrella sedge, Cyperus difformis), ducksalad (Heteranthera limosa), and barnyardgrass (Echinochloa crus-galli) were grown to the 2-leaf stage for testing. At time of treatment, test pots were flooded to 3 cm above the soil surface, treated by application of test compounds directly to the paddy water, and then maintained at that water depth for the duration of the test. Treated plants and controls were maintained in a greenhouse for 13 to 15 d, after which time all species were compared to controls and visually evaluated. Plant response ratings, summarized in Table B, are based on a scale of 0 to 100 where 0 is no effect and 100 is complete control. A dash (-) response means no test result.

[16] = tested on: sedge, umbrella (small-flower umbrella sedge, Cyperus difformis); experiment: Test B flooded paddy test; conditions: Flood, 250 g ai/ha
Procedure: as §3

[17] = tested on: ducksalad (Heteranthera limosa); experiment: Test B flooded paddy test; conditions: Flood, 250 g ai/ha, 0 to 100 scale where 0 is no effect and 100 is complete control
Procedure: as §3

[18] = tested on: barnyardgrass (Echinochloa crus-galli); experiment: Test B flooded paddy test; conditions: Flood, 250 g ai/ha, 0 to 100 scale where 0 is no effect and 100 is complete control
Procedure: as §3

[19] = Preemergence, 500 g ai/ha, 0 is no effect, 100 is complete control
[20] = 125 g ai/ha, preemergence, 0 to 100 scale (0 no effect, 100 complete control)
[21] = 500 g ai/ha, postemergence, 0 to 100 scale, 0 no effect, 100 complete control
[22] = Postemergence, 125 g ai/ha, visual injury, 0 to 100 scale (0 no effect, 100 complete control), approx. 10 d
[23] = 500 g ai/ha, preemergence, 0 to 100 scale where 0 is no effect and 100 is complete control
[24] = Postemergence, 500 g ai/ha, visual injury, 0 to 100 scale (0 no effect, 100 complete control), approx. 10 d
[25] = 125 g ai/ha, Postemergence, visual rating about 10 d after treatment

In the case of `Cc1ccc(C2CNC(=O)C2C(=O)Nc2cccc(F)c2F)cc1F` (racemic) [Compound 369], the “Plant response rating, Foxtail, Giant” value ([1]; preemergence) was 90, the “Foxtail, Giant plant response rating (0 to 100 scale)” value [1, 19] was 90 and the “Plant response rating, Pigweed” value [2, 20] was 0. The “Pigweed plant response rating (0 to 100 scale)” value [2, 19] was 0, the “Plant response rating, Kochia” value (Kochia (Kochia scoparia) [3]; [20]) was 50 and the “Kochia plant response rating (0 to 100 scale)” value (Kochia (Kochia scoparia) [3]; [19]) was 40. For the same molecule, the “Plant response rating, Ryegrass, Italian” value ([4]; preemergence) was 0, the “Ryegrass, Italian plant response rating (0 to 100 scale)” value [4, 19] was 20 and the “Plant response rating, Ragweed” value ([5]; preemergence) was 60. For the same molecule, the “Ragweed plant response rating (0 to 100 scale)” value [5, 19] was 60, the “Plant response rating, Barnyardgrass” value [6, 20] was 90 and the “Barnyardgrass plant response rating (0 to 100 scale)” value [6, 19] was 90. The “Plant response rating, Foxtail, Giant” value [7, 21] was 80, the “Plant response rating, Foxtail, Giant” value [7, 22] was 20 and the “Plant response rating, Blackgrass” value [8, 21] was 70. For the same molecule, the “Plant response rating, Blackgrass” value [8, 22] was 30, the “Plant response rating, Galium” value [9, 21] was 70 and the “Plant response rating, Galium” value [9, 22] was 60. For the same molecule, the “Plant response rating, Wheat” value [10, 21] was 60, the “Plant response rating, Wheat” value [10, 22] was 0 and the “Plant response rating, Pigweed” value [11, 21] was 0. The “Plant response rating, Pigweed” value [11, 22] was 0, the “Plant response rating, Kochia” value (Kochia (Kochia scoparia) [12]; [21]) was 60 and the “Plant response rating, Kochia” value (Kochia (Kochia scoparia) [12]; [22]) was 20. The “Plant response rating, Corn” value (corn (Zea mays); [21]) was 50, the “Plant response rating, Corn” value (corn (Zea mays); [22]) was 0 and the “Plant response rating, Ryegrass, Italian” value [13, 21] was 50. The “Plant response rating, Ryegrass, Italian” value [13, 22] was 20, the “Plant response rating, Ragweed” value [14, 21] was 30 and the “Plant response rating, Ragweed” value [14, 22] was 0. The “Plant response rating, Barnyardgrass” value [15, 21] was 90, the “Plant response rating, Barnyardgrass” value [15, 22] was 90 and the “Plant response rating, Rice” value (rice (Oryra sativa); 13 to 15 d) was 0. The “Plant response rating, Sedge, Umbrella” value ([16]; 0 to 100 scale where 0 is no effect and 100 is complete control, 13 to 15 d) was 0, the “Plant response rating, Ducksalad” value ([17]; 13 to 15 d) was 100 and the “Plant response rating, Barnyardgrass” value ([18]; 13 to 15 d) was 20.

In the case of `Cc1cc([C@H]2CN(C)C(=O)[C@@H]2C(=O)Nc2ccccc2[S+](C)[O-])ccc1F` (stereo partly drawn) [Compound 1313], the “Plant response rating, Foxtail, Giant” value ([1]; Preemergence) was 20, the pest or weed control at 500 g/ha ([1]; Setaria faberi, pre-emergence, 240 h, 500 g ai/ha, preemergence, 0 to 100 scale where 0 is no effect and 100 is complete control, read-out: Foxtail, Giant plant response rating) was 80% and the “Pigweed plant response rating” value [2, 23] was 0. The pest or weed control at 125 g/ha ([2]; Amaranthus retroflexus, pre-emergence, 240 h, Preemergence, 125 g ai/ha, 0 to 100 scale (0 no effect, 100 complete control), read-out: Plant response rating, Pigweed) was 0%, the pest or weed control at 500 g/ha (Kochia (Kochia scoparia) [3]; Bassia scoparia, pre-emergence, 240 h, 500 g ai/ha, preemergence, 0 to 100 scale where 0 is no effect and 100 is complete control, read-out: Kochia plant response rating) was 100% and the pest or weed control at 125 g/ha (Kochia (Kochia scoparia) [3]; Bassia scoparia, pre-emergence, 240 h, Preemergence, 125 g ai/ha, 0 to 100 scale (0 no effect, 100 complete control), read-out: Plant response rating, Kochia) was 90%. The “Plant response rating, Ryegrass, Italian” value ([4]; Preemergence) was 0, the “Ragweed plant response rating” value [5, 23] was 0 and the “Plant response rating, Ragweed” value ([5]; Preemergence) was 0. It also gave a pest or weed control at 500 g/ha ([6]; Echinochloa crus-galli, pre-emergence, 240 h, 500 g ai/ha, preemergence, 0 to 100 scale where 0 is no effect and 100 is complete control, read-out: Barnyardgrass plant response rating) of 100%, a pest or weed control at 125 g/ha ([6]; Echinochloa crus-galli, pre-emergence, 240 h, Preemergence, 125 g ai/ha, 0 to 100 scale (0 no effect, 100 complete control), read-out: Plant response rating, Barnyardgrass) of 90% and a pest or weed control at 125 g/ha ([7]; Setaria faberi, post-emergence, 240 h, 125 g ai/ha, Postemergence, visual rating about 10 d after treatment, read-out: Foxtail, Giant plant response rating (0 to 100 scale)) of 90%. For the same molecule, the pest or weed control at 500 g/ha ([7]; Setaria faberi, post-emergence, 240 h, Postemergence, 500 g ai/ha, visual injury, 0 to 100 scale (0 no effect, 100 complete control), approx. 10 d, read-out: Plant response rating, Foxtail, Giant) was 90%, the pest or weed control at 125 g/ha ([8]; Alopecurus myosuroides, post-emergence, 240 h, 125 g ai/ha, Postemergence, visual rating about 10 d after treatment, read-out: Blackgrass plant response rating (0 to 100 scale)) was 0% and the “Plant response rating, Blackgrass” value [8, 24] was 0. For the same molecule, the “Galium plant response rating (0 to 100 scale)” value [9, 25] was 0, the pest or weed control at 500 g/ha ([9]; Galium, post-emergence, 240 h, Postemergence, 500 g ai/ha, visual injury, 0 to 100 scale (0 no effect, 100 complete control), approx. 10 d, read-out: Plant response rating, Galium) was 40% and the “Wheat plant response rating (0 to 100 scale)” value [10, 25] was 0. The “Plant response rating, Wheat” value [10, 24] was 0, the pest or weed control at 125 g/ha ([11]; Amaranthus retroflexus, post-emergence, 240 h, 125 g ai/ha, Postemergence, visual rating about 10 d after treatment, read-out: Pigweed plant response rating (0 to 100 scale)) was 0% and the “Plant response rating, Pigweed” value [11, 24] was 0. The “Kochia plant response rating (0 to 100 scale)” value (Kochia (Kochia scoparia) [12]; [25]) was 20, the pest or weed control at 500 g/ha (Kochia (Kochia scoparia) [12]; Bassia scoparia, post-emergence, 240 h, Postemergence, 500 g ai/ha, visual injury, 0 to 100 scale (0 no effect, 100 complete control), approx. 10 d, read-out: Plant response rating, Kochia) was 50% and the “Corn plant response rating (0 to 100 scale)” value (corn (Zea mays); [25]) was 0. For the same molecule, the “Plant response rating, Corn” value (corn (Zea mays); [24]) was 0, the pest or weed control at 125 g/ha ([13]; Lolium multiflorum, post-emergence, 240 h, 125 g ai/ha, Postemergence, visual rating about 10 d after treatment, read-out: Ryegrass, Italian plant response rating (0 to 100 scale)) was 0% and the pest or weed control at 500 g/ha ([13]; Lolium multiflorum, post-emergence, 240 h, Postemergence, 500 g ai/ha, visual injury, 0 to 100 scale (0 no effect, 100 complete control), approx. 10 d, read-out: Plant response rating, Ryegrass, Italian) was 0%. The pest or weed control at 125 g/ha ([14]; Ambrosia artemisiifolia, post-emergence, 240 h, 125 g ai/ha, Postemergence, visual rating about 10 d after treatment, read-out: Ragweed plant response rating (0 to 100 scale)) was 0%, the “Plant response rating, Ragweed” value [14, 24] was 0 and the pest or weed control at 250 g/ha (rice (Oryra sativa); Oryza sativa, read-out: Rice plant response rating) was 0%. For the same molecule, the pest or weed control at 250 g/ha ([16]; Cyperus difformis, 360 h, visually evaluated after 13 to 15 d, read-out: Plant response rating, Sedge, Umbrella (0 to 100 scale where 0 is no effect and 100 is complete control)) was 0%, the “Ducksalad plant response rating” value [17] was 70 and the “Barnyardgrass plant response rating” value [18] was 25.
